From patent US20260055103A1, “2,3,4,9-TETRAHYDRO-1H-PYRIDO[3,4-B]INDOLE DERIVATIVES AS ESTROGEN RECEPTOR MODULATORS FOR THE TREATMENT OF CANCER” (Olema Pharmaceuticals, Inc., priority 2022, published 2026)

Target: T1, estrogen receptor (Homo sapiens, UniProt P03372)
T1 construct: endogenous in cells; host or cells: ECC-1 cells
T1 sequence (P03372 1-595): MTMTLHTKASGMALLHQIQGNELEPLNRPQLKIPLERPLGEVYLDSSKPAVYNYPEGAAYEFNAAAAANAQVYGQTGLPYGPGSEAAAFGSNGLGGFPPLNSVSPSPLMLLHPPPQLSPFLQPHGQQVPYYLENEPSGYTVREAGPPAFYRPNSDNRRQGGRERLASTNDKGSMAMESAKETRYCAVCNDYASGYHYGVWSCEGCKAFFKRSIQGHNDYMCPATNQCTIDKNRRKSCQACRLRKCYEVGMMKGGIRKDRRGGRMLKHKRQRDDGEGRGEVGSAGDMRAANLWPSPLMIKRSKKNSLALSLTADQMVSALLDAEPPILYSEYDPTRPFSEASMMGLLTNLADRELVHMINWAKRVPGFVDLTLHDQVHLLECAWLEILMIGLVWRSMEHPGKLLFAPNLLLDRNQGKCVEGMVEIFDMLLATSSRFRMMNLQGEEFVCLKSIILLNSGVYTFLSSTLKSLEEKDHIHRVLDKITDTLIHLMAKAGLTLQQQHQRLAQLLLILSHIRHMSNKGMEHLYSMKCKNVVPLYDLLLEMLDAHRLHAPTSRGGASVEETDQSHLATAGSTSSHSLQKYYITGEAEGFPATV
Assay: Alkaline phosphatase (AP) assay in ECC-1 cells, agonist mode (no E2) and antagonist mode (500 pM E2)
Type: cell-based
Details: 3 days, AP activity normalized to 500 pM E2 alone, agonist mode without E2, antagonist mode with 500 pM E2
Protocol: ECC-1 cells were trypsinized and resuspended in hormone-depleted media and plated at a density of 15 k cells per well into a 96-well plate for at least 4 hours. Cells were treated with test compounds in the absence of E2 (for agonist mode) or in the presence of 500 pM E2 (for antagonist mode) for 3 days and plates were subsequently frozen at −80° C. Thawed plates were incubated with a chromogenic substrate of AP, p-nitrophenyl phosphate (Thermo Fisher Scientific), for 40 minutes at 42° C., and absorbances were read at 405 nm. AP activity was normalized to the activity of 500 pM E2 alone.
The compound numbers correspond to the compound numbers of Table 1 and 2. Compounds having an activity designated as “+” provided estrogen receptor agonism having (i) at least 80% increase in the E2-normalized signal in the AP assay (agonist mode) and (ii) no more than 80% reduction in the E2-normalized signal in the AP assay (antagonist mode). Compounds having an activity designated as “++” provided estrogen receptor antagonism having (i) between 10% and 80% increase in the E2-normalized signal in the AP assay (agonist mode) and (ii) between 10% and 80% reduction in the E2-normalized signal in the AP assay (antagonist mode).

Row | Compound | Activity (estrogen receptor modulation, agonism and antagonism)
1 | C[C@@H]1Cc2c([nH]c3ccccc23)[C@@H](c2ccc(CCCN3CC(CF)C3)s2)N1CC(C)(C)F [Example I-21, 1-(3-{5-[(1S,3R)-2-(2-fluoro-2-methylpropyl)-3-methyl-1H,2H,3H,4H,9H-pyrido[3,4-b]indol-1-yl]thiophen-2-yl}propyl)-3-(fluoromethyl)azetidine] | +++ (estrogen receptor antagonism (i) with pIC50 greater than 7.5 and at least a 10% reduction in the E2-normalized signal in the AP assay (antagonist mode); and no more than 10% increase in E2-normalized signal in the AP assay (agonist mode))
2 | C[C@@H]1Cc2c([nH]c3ccccc23)[C@@H](c2cnc(CC3CN(CCCF)C3)s2)N1CC(F)(F)F [Example I-38, 2-[[1-(3-fluoropropyl)azetidin-3-yl]methyl]-5-[(1S,3R)-3-methyl-2-(2,2,2-trifluoroethyl)-1,3,4,9-tetrahydropyrido[3,4-b]indol-1-yl]thiazole] | ++ (estrogen receptor antagonism having (i) between 10% and 80% increase in the E2-normalized signal in the AP assay (agonist mode) and (ii) between 10% and 80% reduction in the E2-normalized signal in the AP assay (antagonist mode))
3 | C[C@@H]1Cc2c([nH]c3ccccc23)[C@@H](c2ncc(CC3CN(CCCF)C3)s2)N1CC(F)(F)F [Example I-34, 5-[[1-(3-fluoropropyl)azetidin-3-yl]methyl]-2-[(1S,3R)-3-methyl-2-(2,2,2-trifluoroethyl)-1,3,4,9-tetrahydropyrido[3,4-b]indol-1-yl]thiazole] | ++ (estrogen receptor antagonism having (i) between 10% and 80% increase in the E2-normalized signal in the AP assay (agonist mode) and (ii) between 10% and 80% reduction in the E2-normalized signal in the AP assay (antagonist mode))
4 | CCCN1CC(Cc2cnc([C@@H]3c4[nH]c5ccccc5c4C[C@@H](C)N3CC(F)(F)CO)s2)C1 [Example I-50, 2,2-difluoro-3-[(1S,3R)-3-methyl-1-[5-[(1-propylazetidin-3-yl)methyl]thiazol-2-yl]-1,3,4,9-tetrahydropyrido[3,4-b]indol-2-yl]propan-1-ol] | ++ (estrogen receptor antagonism having (i) between 10% and 80% increase in the E2-normalized signal in the AP assay (agonist mode) and (ii) between 10% and 80% reduction in the E2-normalized signal in the AP assay (antagonist mode))
5 | CCCN1CC(Cc2cnc([C@@H]3c4[nH]c5ccccc5c4C[C@@H](C)N3CC(F)F)s2)C1 [Example I-32, 2-[(1S,3R)-2-(2,2-difluoroethyl)-3-methyl-1,3,4,9-tetrahydropyrido[3,4-b]indol-1-yl]-5-[(1-propylazetidin-3-yl)methyl]thiazole] | ++ (estrogen receptor antagonism having (i) between 10% and 80% increase in the E2-normalized signal in the AP assay (agonist mode) and (ii) between 10% and 80% reduction in the E2-normalized signal in the AP assay (antagonist mode))
6 | C[C@@H]1Cc2c([nH]c3ccccc23)[C@@H](c2ncc(CC3CN(CCC(F)F)C3)s2)N1CC(F)F [Example I-35, 2-[(1S,3R)-2-(2,2-difluoroethyl)-3-methyl-1,3,4,9-tetrahydropyrido[3,4-b]indol-1-yl]-5-[[1-(3,3-difluoropropyl)azetidin-3-yl]methyl]thiazole] | ++ (estrogen receptor antagonism having (i) between 10% and 80% increase in the E2-normalized signal in the AP assay (agonist mode) and (ii) between 10% and 80% reduction in the E2-normalized signal in the AP assay (antagonist mode))
7 | Cc1cc([C@@H]2c3[nH]c4ccccc4c3C[C@@H](C)N2CC(C)(C)F)sc1CC1CN(CCCF)C1 [Example I-9, (1S,3R)-2-(2-fluoro-2-methylpropyl)-1-(5-((1-(3-fluoropropyl)azetidin-3-yl)methyl)-4-methylthiophen-2-yl)-3-methyl-2,3,4,9-tetrahydro-1H-pyrido[3,4-b]indole] | ++ (estrogen receptor antagonism having (i) between 10% and 80% increase in the E2-normalized signal in the AP assay (agonist mode) and (ii) between 10% and 80% reduction in the E2-normalized signal in the AP assay (antagonist mode))
8 | CCCN1CC[C@@H](Cc2ncc([C@@H]3c4[nH]c5ccccc5c4C[C@@H](C)N3CC(C)(C)F)s2)C1 [Example I-47] | + (estrogen receptor agonism having (i) at least 80% increase in the E2-normalized signal in the AP assay (agonist mode) and (ii) no more than 80% reduction in the E2-normalized signal in the AP assay (antagonist mode))
9 | CCCN1CCC(c2ccc([C@@H]3c4[nH]c5ccccc5c4C[C@@H](C)N3CC(C)(C)F)s2)CC1 [Example I-70, (1S,3R)-2-(2-fluoro-2-methyl-propyl)-3-methyl-1-[5-(1-propyl-4-piperidyl)-2-thienyl]-1,3,4,9-tetrahydropyrido[3,4-b]indole] | + (estrogen receptor agonism having (i) at least 80% increase in the E2-normalized signal in the AP assay (agonist mode) and (ii) no more than 80% reduction in the E2-normalized signal in the AP assay (antagonist mode))
10 | C[C@@H]1Cc2c([nH]c3ccccc23)[C@@H](c2cnc(N[C@H]3CCCN(CCCF)C3)s2)N1CC(F)(F)CO [Example I-66] | ++ (estrogen receptor antagonism having (i) between 10% and 80% increase in the E2-normalized signal in the AP assay (agonist mode) and (ii) between 10% and 80% reduction in the E2-normalized signal in the AP assay (antagonist mode))
11 | C[C@@H]1Cc2c([nH]c3ccccc23)[C@@H](c2ccc(SC3CN(CCCF)C3)s2)N1CC(C)(C)F [Example I-61, 3-({5-[(1S,3R)-2-(2-fluoro-2-methylpropyl)-3-methyl-1H,2H,3H,4H,9H-pyrido[3,4-b]indol-1-yl]thiophen-2-yl}sulfanyl)-1-(3-fluoropropyl)azetidine] | ++ (estrogen receptor antagonism having (i) between 10% and 80% increase in the E2-normalized signal in the AP assay (agonist mode) and (ii) between 10% and 80% reduction in the E2-normalized signal in the AP assay (antagonist mode))
12 | COCCCN1CC(Cc2ccc([C@@H]3c4[nH]c5ccccc5c4C[C@@H](C)N3CC(C)(C)F)s2)C1 [Example I-54, (1S,3R)-2-(2-fluoro-2-methyl-propyl)-1-[5-[[1-(3-methoxypropyl)azetidin-3-yl]methyl]-2-thienyl]-3-methyl-1,3,4,9-tetrahydropyrido[3,4-b]indole] | + (estrogen receptor agonism having (i) at least 80% increase in the E2-normalized signal in the AP assay (agonist mode) and (ii) no more than 80% reduction in the E2-normalized signal in the AP assay (antagonist mode))
13 | CCN1CCN(c2ccc([C@@H]3c4[nH]c5ccccc5c4C[C@@H](C)N3CC(C)(C)F)s2)CC1 [Example I-74, (1S,3R)-1-[5-(4-ethylpiperazin-1-yl)-2-thienyl]-2-(2-fluoro-2-methyl-propyl)-3-methyl-1,3,4,9-tetrahydropyrido[3,4-b]indole] | + (estrogen receptor agonism having (i) at least 80% increase in the E2-normalized signal in the AP assay (agonist mode) and (ii) no more than 80% reduction in the E2-normalized signal in the AP assay (antagonist mode))
14 | C[C@@H]1Cc2c([nH]c3ccccc23)[C@@H](c2ccc(CC3CN(CCCF)C3)s2)N1CC(F)(F)CO [Example I-16, 2,2-difluoro-3-[(1S,3R)-1-(5-{[1-(3-fluoropropyl)azetidin-3-yl]methyl}thiophen-2-yl)-3-methyl-1H,2H,3H,4H,9H-pyrido[3,4-b]indol-2-yl]propan-1-ol] | +++ (estrogen receptor antagonism (i) with pIC50 greater than 7.5 and at least a 10% reduction in the E2-normalized signal in the AP assay (antagonist mode); and no more than 10% increase in E2-normalized signal in the AP assay (agonist mode))
15 | CC1CN(CCCc2ccc([C@@H]3c4[nH]c5ccccc5c4C[C@@H](C)N3CC(C)(C)F)s2)C1 [Example I-19, 1-(3-{5-[(1S,3R)-2-(2-fluoro-2-methylpropyl)-3-methyl-1H,2H,3H,4H,9H-pyrido[3,4-b]indol-1-yl]thiophen-2-yl}propyl)-3-methylazetidine] | ++ (estrogen receptor antagonism having (i) between 10% and 80% increase in the E2-normalized signal in the AP assay (agonist mode) and (ii) between 10% and 80% reduction in the E2-normalized signal in the AP assay (antagonist mode))
